Test results reported in US20240199647A1, “ANTI-VIRAL COMPOUNDS” (Aligos Therapeutics, Inc., priority 2022, published 2024).
Where two headings read alike, the source gives them in different places.

Key:
SARS-Cov-2 3CLpro = SARS-Cov-2 3CLpro (Severe acute respiratory syndrome coronavirus 2, UniProt P0DTD1); test: biochemical; details: Table A, class symbols, read-out: SARS-Cov-2 (IC50)
[1] = test system: human beta-coronavirus OC43; test: OC43 Coronavirus Assay in HeLa cells (antiviral, cytopathic effect, cell-titer-glo); format: cell-based; details: Betacoronavirus 1, OC43, HeLa, Table B, OC43 coronavirus in HeLa cells, read-out: EC50
[2] = test system: SARS-CoV-2 B.1.1.7 lineage; test: microbe, parasite or virus in culture; format: cell-based; details: Severe acute respiratory syndrome coronavirus 2, Table C, SARS-CoV-2 B.1.1.7 in A549-dual_ACE2_TMPRSS2 cells, read-out: A549-dual_ACE2_TMPRSS2 (EC50)
in vitro = details: human
[3] = Cytotoxicity in HeLa cells without addition of OC43 virus (in parallel); details: human, HeLa cells, without OC43 virus

| SMILES | IC50 (SARS-Cov-2 3CLpro) [µM] | EC50 ([1]; class symbols) [µM] | EC50 ([2]; class symbols) [µM] | CC50 (in vitro) [µM] | CC50 at 6 days [3] [µM] | EC50 ([2]; cells given as a bound) [µM] | EC50 ([1]; cells given as a bound) [µM] |
| --- | --- | --- | --- | --- | --- | --- | --- |
| CCOC[C@H](NC(=O)C(F)(F)F)C(=O)N(C)[C@@H](CC1CC1)C(=O)N1C[C@@]2(C[C@H]1C#N)Oc1cccnc1NC2=O [Compound 220] | < 0.02 | < 0.1 | 0.1 to 1 | > 1 | > 10 | – | – |
| C[C@H](NC(=O)C(F)(F)F)C(=O)N(C)[C@@H](CC(C)(C)C)C(=O)N1C[C@@]2(C[C@H]1C#N)Oc1cccnc1NC2=O [Compound 166] | < 0.02 | < 0.1 | 0.1 to 1 | > 1 | > 10 | – | – |
| Cc1ccc2c(n1)O[C@@]1(C[C@@H](C#N)N(C(=O)[C@H](CC3CC3)N(C)C(=O)[C@H](CC3CC3)NC(=O)C(F)(F)F)C1)C(=O)N2 [Compound 227, (S)—N—((S)-1-((3R,5'S)-5′-cyano-6-methyl-2-oxo-1,2-dihydrospiro[pyrido[2,3-b][1,4]oxazine-3,3′-pyrrolidin]-1′-yl)-3-cyclopropyl-1-oxopropan-2-yl)-3-cyclopropyl-N-methyl-2-(2,2,2-trifluoroacetamido)propanamide] | < 0.02 | < 0.1 | 0.1 to 1 | > 1 | > 10 | – | – |
| CN(C(=O)[C@@H](NC(=O)C(F)(F)F)C1CC(F)(F)C1)[C@@H](CC1CC1)C(=O)N1C[C@@]2(C[C@H]1C#N)Oc1cccnc1NC2=O [Compound 201] | 0.02 to 0.2 | 0.1 to 1 | 0.1 to 1 | > 1 | > 10 | – | – |
| CN(C(=O)[C@H](CC1(C)CCC1)NC(=O)C(F)(F)F)[C@@H](CC1CC1)C(=O)N1C[C@@]2(C[C@H]1C#N)Oc1ncccc1NC2=O [Compound 206] | < 0.02 | < 0.1 | < 0.1 | > 1 | > 10 | – | – |
| CN(C(=O)[C@H](COC(C)(C)C)NC(=O)C(F)(F)F)[C@@H](CC1CC1)C(=O)N1C[C@@]2(C[C@H]1C#N)Oc1cc(F)cc(F)c1NC2=O [Compound 158] | < 0.02 | < 0.1 | < 0.1 | > 1 | > 10 | – | – |
| Cc1cc2n(n1)[C@@]1(C[C@@H](C#N)N(C(=O)[C@H](CC(C)C)N(C)C(=O)[C@H](C)NC(=O)C(F)(F)F)C1)C(=O)N2 [Example 44, (S)—N—((S)-1-((3R,5'S)-5′-cyano-6-methyl-2-oxo-1,2-dihydrospiro[imidazo[1,2-b]pyrazole-3,3′-pyrrolidin]-1′-yl)-4-methyl-1-oxopentan-2-yl)-N-methyl-2-(2,2,2-trifluoroacetamido)propanamide] | 0.02 to 0.2 | 0.1 to 1 | – | > 1 | > 10 | > 1 | – |
| CC(C)C[C@@H](C(=O)N1C[C@]2(C[C@H]1C#N)C(=O)NCc1nccn12)N(C)C(=O)[C@H](C)NC(=O)C(F)(F)F [Example 46, (S)—N—((S)-1-((5R,5'S)-5′-cyano-6-oxo-7,8-dihydro-6H-spiro[imidazo[1,2-a]pyrazine-5,3′-pyrrolidin]-1′-yl)-4-methyl-1-oxopentan-2-yl)-N-methyl-2-(2,2,2-trifluoroacetamido)propanamide] | 0.02 to 0.2 | – | – | > 1 | > 10 | > 1 | > 10 |
| CN(C(=O)[C@@H](COC(C)(C)C)NC(=O)C(F)(F)F)[C@@H](CC1CC1)C(=O)N1C[C@@]2(C[C@H]1C#N)Oc1cccnc1NC2=O [Compound 156] | < 0.02 | < 0.1 | 0.1 to 1 | > 1 | > 10 | – | – |
| CN(C(=O)C(C)(C)NC(=O)C(F)(F)F)[C@@H](CC1CC1)C(=O)N1C[C@@]2(C[C@H]1C#N)Oc1cc(F)cc(F)c1NC2=O [Compound 92] | 0.2 to 2 | < 0.1 | < 0.1 | > 1 | > 10 | – | – |
| CN(C(=O)[C@H](CC1CC1)NC(=O)C(F)(F)C(F)(F)F)[C@@H](CC1CC1)C(=O)N1C[C@@]2(C[C@H]1C#N)Oc1ncccc1NC2=O [Compound 184] | < 0.02 | < 0.1 | < 0.1 | > 1 | > 10 | – | – |
| CC(C)C[C@@H](C(=O)N1C[C@]2(CCCNC2=O)C[C@H]1C#N)N(C)C(=O)[C@H](C)NC(=O)C(F)(F)F [Compound 11] | 0.02 to 0.2 | 1 to 10 | 0.1 to 1 | > 1 | > 10 | – | – |
| C[C@H](NC(=O)C(F)(F)C(F)(F)F)C(=O)N(C)[C@@H](CC1CC1)C(=O)N1C[C@@]2(C[C@H]1C#N)Oc1cccnc1NC2=O [Compound 170] | < 0.02 | < 0.1 | < 0.1 | > 1 | > 10 | – | – |
| CN(C(=O)[C@@H](NC(=O)C(F)(F)F)C1CC1)[C@@H](CC1CC1)C(=O)N1C[C@@]2(C[C@H]1C#N)Oc1cccnc1NC2=O [Compound 179] | < 0.02 | < 0.1 | 0.1 to 1 | > 1 | > 10 | – | – |
| C[C@H](NC(=O)C(F)(F)F)C(=O)N(C)[C@@H](CC1(C)CC1)C(=O)N1C[C@@]2(C[C@H]1C#N)Oc1cccnc1NC2=O [Compound 183] | < 0.02 | < 0.1 | 0.1 to 1 | > 1 | > 10 | – | – |
| CC(C)C[C@@H](C(=O)N1C[C@]2(CCNC2=O)C[C@H]1C#N)N(C)C(=O)[C@H](C)NC(=O)C(F)(F)F [Compound 8, (S)—N—((S)-1-((3S,5S)-3-cyano-6-oxo-2,7-diazaspiro[4.4]nonan-2-yl)-4-methyl-1-oxopentan-2-yl)-N-methyl-2-(2,2,2-trifluoroacetamido)propanamide] | 0.02 to 0.2 | 1 to 10 | 1 to 10 | > 1 | > 10 | – | – |
| CN(C(=O)c1cc2cccc(Cl)c2[nH]1)[C@@H](CC1CC1)C(=O)N1C[C@@]2(C[C@H]1C#N)Oc1cc(F)cc(F)c1NC2=O [Compound 133] | < 0.02 | 0.1 to 1 | 0.1 to 1 | > 1 | > 10 | – | – |
| CN(C(=O)[C@H](CC1CC1)NC(=O)C(F)(F)F)[C@@H](CC1CC1)C(=O)N1C[C@@]2(C[C@H]1C#N)Oc1cnccc1NC2=O [Compound 73] | 0.02 to 0.2 | 0.1 to 1 | 0.1 to 1 | > 1 | > 10 | – | – |
| CN(C(=O)[C@H](CC1CC1)n1cc(C2CC2)nn1)[C@@H](CC1CC1)C(=O)N1C[C@@]2(C[C@H]1C#N)Oc1cc(F)cc(F)c1NC2=O [Compound 108, (S)—N—((S)-1-((2R,5'S)-5′-cyano-5,7-difluoro-3-oxo-3,4-dihydrospiro[benzo[b][1,4]oxazine-2,3′-pyrrolidin]-1′-yl)-3-cyclopropyl-1-oxopropan-2-yl)-3-cyclopropyl-2-(4-cyclopropyl-1H-1,2,3-triazol-1-yl)-N-methylpropanamide] | < 0.02 | 0.1 to 1 | < 0.1 | > 1 | > 10 | – | – |
| CN(C(=O)[C@H](CC1CC1)NC(=O)C(F)(F)F)[C@@H](CC1CC1)C(=O)N1C[C@@]2(C[C@H]1C#N)Oc1cccc(F)c1CNC2=O [Compound 141] | < 0.02 | < 0.1 | 0.1 to 1 | > 1 | > 10 | – | – |
